Broadly, the remaining activity is the activity still measured, relative to the control.

15 compounds from PMC4632503, “Targeting of Helicobacter pylori thymidylate synthase ThyX by non-mitotoxic hydroxy-naphthoquinones” (Open Biology, 2015) can be followed below.

In one data set the test system is H. pylori strain SS1. Briefly: MIC, broth microdilution test, strain SS1. Particulars: Helicobacter pylori, 24 h, read-out: minimal inhibitory concentration (MIC) strain SS1. The class given is cell-based. The protocol: (§1) The in vitro anti-bacterial activity of 2-OH-1,4-NQ compounds was assessed against the 26695 and SS1 strains of H. pylori. DMSO was used as control in all experiments.
(§2) Disc diffusion tests were performed in triplicate, including a DMSO-only control on each plate, as specified in the electronic supplementary material. Minimal inhibitory concentrations (MICs) were determined using a broth microdilution test in 24-well microtitre plates. For test inocula, an overnight preculture of H. pylori strains 26695 and SS1 was diluted to an OD600 of approximately 0.1 and 0.5 ml of this suspension was transferred to each well. Ten microlitres of twofold serial dilutions of each compound in DMSO, ranging in concentration from 0.625 to 20 µg ml^−1, were added and the covered plates were incubated for 24 h at 37°C with orbital shaking at 140 r.p.m. under microaerophilic conditions. The MIC was determined as the lowest compound concentration resulting in full growth inhibition after 24 h of incubation. All the tests were done in triplicate, including cell-free and DMSO-only controls.

The target of another data set is T1, HpThyX (Helicobacter pylori, UniProt O26061).
T1 construct: His6; made in house; host or cells: Escherichia coli BL21 (plasmid pGL2, pBAD promoter)
T1 sequence (O26061 whole entry): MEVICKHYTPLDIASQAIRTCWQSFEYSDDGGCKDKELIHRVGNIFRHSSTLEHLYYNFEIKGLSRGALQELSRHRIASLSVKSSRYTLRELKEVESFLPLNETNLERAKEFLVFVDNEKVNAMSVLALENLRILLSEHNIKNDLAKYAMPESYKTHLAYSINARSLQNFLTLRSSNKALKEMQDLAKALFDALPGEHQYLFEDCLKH
Briefly: tritium release (deprotonation) assay of [5-3H]dUMP. The class given is biochemical. The note with it: for remaining activity at 100 µM: 20 min, read-out: inhibition against ThyX (% remaining activity relative to control). As for the experimental part:
HpThyX activity was assessed by measuring either deprotonation of [5-^3H]dUMP or NAPDH oxidation activities.
In the tritium release (deprotonation) assays, typical reactions contained 10 mM MgCl2, 10% (v/v) glycerol, 500 µM FAD, 2 mM NADPH, 1 mM CH2H4Folate and 10 mM β-mercaptoethanol in 50 mM HEPES (pH 8). Different concentrations of dUMP were also included in the reaction mixtures. The specific activity of tritiated [5-^3H]dUMP (diammonium salt) stock was 15–30 Ci mmol^−1 (Moravek Biochemicals, CA, USA). 2-OH-1,4-NQ derivatives were prepared at 100 µM in 1% DMSO. Reactions were initiated by adding the enzyme (10 µM) and were stopped after 20 min incubation at 37°C.

Another data set deals with H. pylori strain 26695. Kind of data set: MIC, broth microdilution test, strain 26695. The class given is cell-based. Particulars: Helicobacter pylori, 26695, 24 h, read-out: minimal inhibitory concentration (MIC) strain 26695. As for the experimental part:
as §1, §2

The subject of data set [1] is AGS cells. Briefly: mitotoxicity, resazurin reduction. Format: cell-based, human. The note with it: for mitotoxicity: 0.78 to 50 μg ml^−1, 4 h treatment. As for the experimental part: Mitochondrial toxicity (mitotoxicity) was assessed by measuring resazurin (7-hydroxy-3H-phenoxazin-3-one 10-oxide) reduction by following absorption changes at 570 nm (Mitochondrial Viability Assay; Abcam). Resazurin is an indicator dye that reports on oxidation–reduction reactions taking place in the mitochondria of living cells. AGS cells (≅2.5 × 10^5cells well^−1) cultured in a DMEM galactose/glutamine-supplemented medium were seeded in sterile white-walled 96-well clear-bottom microplates and treated for 4 h with different doses of 2-OH-1,4-NQ compounds ranging from 0.78 to 50 μg ml^−1. Addition of the stain solution was followed by a further 4 h incubation at 37°C (5% CO2, 90% humidity) and A570 was measured. Rotenone, an inhibitor of the mitochondrial respiratory chain complex I, was used as a positive control.
Background: The colour change of resazurin is a common sign of viable cells or microbes.

A short description of data set [2]: tolerance of orogastric treatment in infected mice. The note with it: orogastric three times a day, 0.375 mg mouse day^−1, one week. Format: in vivo, NMRI mice. As for the experimental part:
NMRI-specific pathogen-free mice (Charles River Laboratories) were orogastrically inoculated with 10^8 CFU of the H. pylori mouse-adapted strain SS1, prepared in 100 μl of peptone broth. Four groups of six to eight mice were infected by H. pylori strain SS1. Earlier experiments have established that after one week, colonization of mice is fully established. A negative control group of five mice was inoculated with peptone broth alone and was not colonized by H. pylori. One week after infection, three groups of mice were treated orogastrically three times a day with 500 µl of either compound 010-C, 010-E or 010-I dissolved in 2% β-cyclodextrin at 0.25 mg ml^−1 (0.375 mg mouse d^−1) during one week. As a control, the fourth group of mice was treated orogastrically three times a day by the same amount of 2% β-cyclodextrin (17.6 mM), the vehicle of the compounds. […] This average size is in agreement with the average size of β-cyclodextrin particles that self-aggregate in water at a concentration of 12 mM [39]. After treatment, viable H. pylori cells, colonizing the mouse stomach, were enumerated by culture of serial dilutions of homogenized tissue on blood agar plates containing bacitracin (200 μg ml^−1) and nalidixic acid (10 μg ml^−1) as in [40].

Data set [3] relates to AGS cells. Kind of data set: cytotoxicity, LDH release. The class given is cell-based, human. As for the experimental part:
Cytotoxicity of the 2-OH-1,4-NQ derivatives was assessed by measuring lactate dehydrogenase (LDH) release following manufacturer's instructions (Cytotoxicity Detection Kit; Roche Applied Sciences). Briefly, AGS cells (human gastric adenocarcinoma cell line; ATCC Catalog no. CRL-1739TM) were cultured in Ham's F-12 K medium containing 1% of FBS. A total of 3 × 10^4 cells were added per well in a sterile 96-well tissue culture plate. Cells were then treated with different doses of 2-OH-1,4-NQ compounds ranging from 0.78 to 50 μg ml^−1. After a 24 h incubation at 37°C (5% CO2, 90% humidity), the microplates were centrifuged at 250g for 10 min, and the supernatants were carefully removed and transferred into optically clear 96-well microplates (Greiner Bio-One). The dye solution containing iodotetrazolium chloride and sodium lactate was then added to each well to quantify the amount of LDH released into the extracellular medium. LDH was quantified by measuring the A490 using a PowerWave Microplate Spectrophotometer (BioTek).
For orientation: LDH in the medium is a marker of cell lysis.

[4] abbreviates: semi-quantitative deprotonation assay, remaining activity, lower = stronger inhibition.

Read-outs that look alike come from different tables or passages of the source.

For `O=C1C(O)=C(Cc2ccc(-c3ccc(Cl)cc3)cc2)C(=O)c2ccccc21` [007-B], the MIC in the data set with H. pylori strain SS1 (full growth inhibition) worked out at 10 µg/mL; with H. pylori strain SS1 (value in brackets) it was 26.7 µM; in the data set with H. pylori strain 26695 (full growth inhibition) it was 10 µg/mL; in the data set on H. pylori strain 26695 (value in brackets) it was 26.7 µM. At HpThyX (setting [4]), the remaining activity at 100 µM worked out at 60.2%.
On to `O=C1C(O)=C(Cc2ccc(OC(F)(F)F)cc2)C(=O)c2ccccc21` [007-C], for which the MIC with H. pylori strain SS1 (full growth inhibition) and in the data set with H. pylori strain 26695 (full growth inhibition) was 5 µg/mL each time. For the same compound, the remaining activity at 100 µM on HpThyX came out at 62.5%.
Take `CC(C)Oc1ccc(CC2=C(O)C(=O)c3ccccc3C2=O)cc1` [007-D]: the MIC in the data set with H. pylori strain SS1 (full growth inhibition) is 20 µg/mL; with H. pylori strain SS1 (value in brackets), 62 µM; with H. pylori strain 26695 (full growth inhibition), no less than 20 µg/mL; in the data set on H. pylori strain 26695 (value in brackets), no less than 62 µM. Besides, the remaining activity at 100 µM on HpThyX (setting [4]) came out at 45.7%.
For the compound `O=C1C(O)=C(Cc2ccc(F)cc2)C(=O)c2ccccc21` [007-E], the MIC in the data set on H. pylori strain SS1 (full growth inhibition) came out at 10 µg/mL; in the data set with H. pylori strain SS1 (value in brackets) it was 35.4 µM; with H. pylori strain 26695 (full growth inhibition), 10 µg/mL; with H. pylori strain 26695 (value in brackets) it was 35.4 µM. The remaining activity at 100 µM on HpThyX (setting [4]) was found to be 66.3%.
Consider `O=C1C(O)=C(Cc2ccc(C(F)(F)F)cc2)C(=O)c2ccccc21` [007-F], for which the MIC in the data set with H. pylori strain SS1 (full growth inhibition) is 10 µg/mL; with H. pylori strain SS1 (value in brackets), 15.1 µM; in the data set with H. pylori strain 26695 (full growth inhibition), 5 µg/mL; in the data set with H. pylori strain 26695 (value in brackets) it was 15.1 µM. Further, the remaining activity at 100 µM on HpThyX is 60.6%.
On to `O=C1C(O)=C(Cc2ccc(Oc3ccccc3)cc2)C(=O)c2ccccc21` [007-G], for which the MIC amounted to 5 µg/mL in the data set on H. pylori strain SS1 (full growth inhibition), 14 µM in the data set with H. pylori strain SS1 (value in brackets), 20 µg/mL with H. pylori strain 26695 (full growth inhibition) and 56.2 µM with H. pylori strain 26695 (value in brackets). Moreover, on HpThyX (setting [4]), the remaining activity at 100 µM came out at 61.8%.
On the same counts, the results for `O=C1C(O)=C(Cc2ccc(Cl)cc2)C(=O)c2ccccc21` [010-A] are 5 µg/mL, 16.7 µM, 10 µg/mL, 33.5 µM and 49.5%.
The like results for `O=C1C(O)=C(Cc2cc(F)cc(F)c2)C(=O)c2ccccc21` [010-B] were, in that order, 10 µg/mL, 33.3 µM, 10 µg/mL, 33.3 µM and 74.3%.
In the case of `O=C1C(O)=C(Cc2cccs2)C(=O)c2ccccc21` [010-D], the MIC stood at 10 µg/mL in the data set with H. pylori strain SS1 (full growth inhibition), 37 µM in the data set on H. pylori strain SS1 (value in brackets), 10 µg/mL in the data set with H. pylori strain 26695 (full growth inhibition) and 37 µM in the data set with H. pylori strain 26695 (value in brackets). On HpThyX (setting [4]), the remaining activity at 100 µM was found to be 36.4%.
With `O=C1C(O)=C(Cc2ccc(F)c(C(F)(F)F)c2)C(=O)c2ccccc21` [010-E], the mitotoxicity result in the data set with AGS cells [1] was “non-mitotoxic”. For the same compound, in the data set with AGS cells [1] (low concentrations, resazurin reduction), the “effect on mitochondrial metabolism” value is “activated the mitochondrial metabolism”. Also, the tolerance in mice result in data set [2] is given as “tolerated in mice”. Further, the “effect on body or stomach weight” value in data set [2] (data not shown) is “None of the aforementioned treatments affected either the body or stomach weight”. Further, the MIC came out at 5 µg/mL in the data set on H. pylori strain SS1 (full growth inhibition), 14.3 µM in the data set on H. pylori strain SS1 (value in brackets), 5 µg/mL in the data set with H. pylori strain 26695 (full growth inhibition) and 14.3 µM with H. pylori strain 26695 (value in brackets). Further, the remaining activity at 100 µM at HpThyX (setting [4]) came to 77.7%. Besides, the dTMP-forming activity result on HpThyX (quantitative tritium release assay, 100 μM compound, 10 μM ThyX enzyme) is listed as “suppressed the dTMP-forming activity”. Further, the cytotoxicity result in the data set with AGS cells [3] (0.78 to 50 μg ml^−1, 24 h) was “non-cytotoxic”.
For the compound `O=C1C(O)=C(Cc2ccc(F)c(Cl)c2)C(=O)c2ccccc21` [010-F], the MIC with H. pylori strain SS1 (full growth inhibition) was determined as 5 µg/mL; in the data set with H. pylori strain SS1 (value in brackets), 15.8 µM; with H. pylori strain 26695 (full growth inhibition), 10 µg/mL; in the data set with H. pylori strain 26695 (value in brackets), 31.6 µM. For the same compound, the remaining activity at 100 µM on HpThyX (setting [4]) was found to be 74.5%.
In the case of `COc1cc(CC2=C(O)C(=O)c3ccccc3C2=O)ccc1O` [010-H], the MIC came out at 10 µg/mL with H. pylori strain SS1 (full growth inhibition), 32.2 µM in the data set on H. pylori strain SS1 (value in brackets), 20 µg/mL with H. pylori strain 26695 (full growth inhibition) and 64.5 µM with H. pylori strain 26695 (value in brackets). In addition, on HpThyX (setting [4]), the remaining activity at 100 µM was found to be 57.8%.
The like results for `O=C1C(O)=C(C=Cc2ccc(F)cc2)C(=O)c2ccccc21` [010-J] were, in that order, 2.5 µg/mL, 8.49 µM, 2.5 µg/mL, 8.49 µM and 49.7%.
On the same counts, the results for `COc1ccc(CC2=C(O)C(=O)c3ccccc3C2=O)cc1OC` [010-K] are 10 µg/mL, 30.8 µM, 20 µg/mL, 61.7 µM and 75.1%.
Regarding `O=C1C(O)=C([C@H]2CC[C@H](c3ccc(Cl)cc3)CC2)C(=O)c2ccccc21` [atovaquone, 2-(trans-4-(4-chlorophenyl)cyclohexyl)-3-hydroxy-1,4-naphthoquinone, reference compound], in the data set with AGS cells [1], the mitotoxicity result was “targeted mitochondria”. The compound further returned a cytotoxic effect with AGS cells [3] (25 µg ml^−1, 24 h) of 48 ± 5%.
